The text below walks through data of PubChem BioAssay (NCI).

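48-hour exposure; five concentrations; linearly interpolated endpoints. GI50: concentration for 50% inhibition of growth. Definition used: TGI = concentration required for complete inhibition of growth.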 Some results are limits rather than exact numbers.

The test system of the first assay is NCI-H226 lung. Briefly: NCI-60 cell line screen, 48 h.
`OCC#Cc1ccccc1C#Cc1ccccc1`: the GI50 was 15 µM and the TGI came to 29.4 µM.

On to `NS(=O)(=O)c1cc(Br)c(N=Nc2ccc(O)c3ncccc23)c(Br)c1`, for which the TGI is above 100 µM.

For `COc1ccc(-c2nnc(COc3ccc(C(=O)/C=C/c4ccco4)cc3)o2)cc1`, the GI50 is 4 µM and the TGI was determined as 16.8 µM.

Compound `OCc1ccc(-c2ccc(-c3ccc(CO)s3)o2)s1` showed a TGI of 0.145 µM.

Turning to `O=C(Nc1ccc(Cl)cc1)c1cccc(NC2=C(Cl)C(=O)N(Cc3ccccc3)C2=O)c1`, the GI50 is 4.31 µM and the TGI turned out to be 21.3 µM.

`O=C(/C=C/c1ccncc1)c1cc(Cl)ccc1O`: the GI50 is 22.7 µM and the TGI is 58 µM.

On to `Cc1cc(/C=C/c2ccc3cc(N(C)C)ccc3[n+]2C)c(C)n1-c1ccccc1`, for which the GI50 was 0.117 µM and the TGI turned out to be 0.74 µM.

For `CC[C@H](Nc1ncnc2nc[nH]c12)c1oc2ccccc2c(=O)c1-c1cccc(F)c1`, the GI50 is 30.3 µM and the TGI is above 100 µM.

Compound `Cc1ccc(S(=O)(=O)Nc2ccccc2C(=O)c2ccc(C)c(C)c2)cc1` yielded a TGI above 100 µM.

The compound `COC1=CC(=O)C(C2CC(=O)c3c(O)cc(O)cc3O2)=CC1=O` (centres undefined) showed a TGI of 40.4 µM.

For the compound `CC(C)C(C)/C=C\C(C)C1CCC2C3=CC=C4CC(O)CCC4(C)C3CCC21C` (centres undefined), the TGI was above 65.3 µM.

In the case of `Cc1cc2c(cc1Cl)SC(N(N(C)C)S(=O)(=O)c1ccc(Cl)cc1)=NS2(=O)=O`, the GI50 is 30.5 µM and the TGI is 89.9 µM.

For the compound `Nc1ncnc2n[nH]c(Nc3ccc(F)cc3)c12`, the GI50 was 51 µM and the TGI is above 100 µM.

In the case of `CCOC(=O)c1cc2nc3ccccc3c(=O)n2c2ccccc12`, the TGI was above 10 µM.

As for `Cc1cc(I)cc(CN(C)CCCN2CCCCC2)c1O`, the GI50 was 28.1 µM and the TGI is above 100 µM.

Turning to `COc1cccc(-c2nc(-c3ccc(NC(=O)C(C)C)cc3)[nH]c2-c2ccnc(Br)c2)c1`, the GI50 was 2.53 µM and the TGI is 21.4 µM.

In the next assay the test system is NCI-H23 lung. Briefly: NCI-60 cell line screen, 48 h.
Regarding `OCC#Cc1ccccc1C#Cc1ccccc1`, the GI50 was 13.7 µM and the TGI was 27.6 µM.

Take `NS(=O)(=O)c1cc(Br)c(N=Nc2ccc(O)c3ncccc23)c(Br)c1`: the TGI was above 100 µM.

With `COc1ccc(-c2nnc(COc3ccc(C(=O)/C=C/c4ccco4)cc3)o2)cc1`, the GI50 is 7.02 µM and the TGI stood at 20.5 µM.

For the compound `OCc1ccc(-c2ccc(-c3ccc(CO)s3)o2)s1`, the TGI was above 90.9 µM.

In the case of `O=C(Nc1ccc(Cl)cc1)c1cccc(NC2=C(Cl)C(=O)N(Cc3ccccc3)C2=O)c1`, the GI50 was 4.81 µM and the TGI was found to be 41.2 µM.

Consider `O=C(/C=C/c1ccncc1)c1cc(Cl)ccc1O`, for which the GI50 is 17.2 µM and the TGI came out at 38.8 µM.

On to `Cc1cc(/C=C/c2ccc3cc(N(C)C)ccc3[n+]2C)c(C)n1-c1ccccc1`, for which the GI50 was 0.082 µM and the TGI was 1.76 µM.

`CC[C@H](Nc1ncnc2nc[nH]c12)c1oc2ccccc2c(=O)c1-c1cccc(F)c1`: the GI50 was 29.7 µM and the TGI is above 100 µM.

In turn, `Cc1ccc(S(=O)(=O)Nc2ccccc2C(=O)c2ccc(C)c(C)c2)cc1` returned a TGI above 100 µM.

In turn, `COC1=CC(=O)C(C2CC(=O)c3c(O)cc(O)cc3O2)=CC1=O` (centres undefined) had a TGI of 40.5 µM.

In turn, `CC(C)C(C)/C=C\C(C)C1CCC2C3=CC=C4CC(O)CCC4(C)C3CCC21C` (centres undefined) registered a TGI above 100 µM.

With `Cc1cc2c(cc1Cl)SC(N(N(C)C)S(=O)(=O)c1ccc(Cl)cc1)=NS2(=O)=O`, the GI50 is 31.2 µM and the TGI was above 100 µM.

Turning to `Nc1ncnc2n[nH]c(Nc3ccc(F)cc3)c12`, the GI50 is 67.8 µM and the TGI is above 100 µM.

In turn, `CCOC(=O)c1cc2nc3ccccc3c(=O)n2c2ccccc12` returned a TGI above 10 µM.

Take `Cc1cc(I)cc(CN(C)CCCN2CCCCC2)c1O`: the GI50 was 19 µM and the TGI turned out to be 56.5 µM.

On to `COc1cccc(-c2nc(-c3ccc(NC(=O)C(C)C)cc3)[nH]c2-c2ccnc(Br)c2)c1`, for which the GI50 is 2.88 µM.

The subject of another assay is RPMI-8226 leukemia. Briefly: NCI-60 cell line screen, 48 h.
For the compound `OCC#Cc1ccccc1C#Cc1ccccc1`, the GI50 was 3 µM and the TGI turned out to be 11.8 µM.

Turning to `NS(=O)(=O)c1cc(Br)c(N=Nc2ccc(O)c3ncccc23)c(Br)c1`, the TGI was above 100 µM.

As for `COc1ccc(-c2nnc(COc3ccc(C(=O)/C=C/c4ccco4)cc3)o2)cc1`, the GI50 is 2.13 µM and the TGI is 5.94 µM.

On to `OCc1ccc(-c2ccc(-c3ccc(CO)s3)o2)s1`, for which the TGI came to 62.3 µM.

On to `O=C(Nc1ccc(Cl)cc1)c1cccc(NC2=C(Cl)C(=O)N(Cc3ccccc3)C2=O)c1`, for which the GI50 is 4.67 µM and the TGI came out at 18.6 µM.

As for `O=C(/C=C/c1ccncc1)c1cc(Cl)ccc1O`, the GI50 is 2.34 µM and the TGI came out at 5.25 µM.

In the case of `Cc1cc(/C=C/c2ccc3cc(N(C)C)ccc3[n+]2C)c(C)n1-c1ccccc1`, the GI50 was 0.0698 µM and the TGI worked out at 0.696 µM.

As for `CC[C@H](Nc1ncnc2nc[nH]c12)c1oc2ccccc2c(=O)c1-c1cccc(F)c1`, the GI50 is 14.5 µM and the TGI was above 100 µM.

For `Cc1ccc(S(=O)(=O)Nc2ccccc2C(=O)c2ccc(C)c(C)c2)cc1`, the TGI was above 100 µM.

For the compound `COC1=CC(=O)C(C2CC(=O)c3c(O)cc(O)cc3O2)=CC1=O` (centres undefined), the TGI was above 100 µM.

With `CC(C)C(C)/C=C\C(C)C1CCC2C3=CC=C4CC(O)CCC4(C)C3CCC21C` (centres undefined), the TGI was above 100 µM.

For the compound `Cc1cc2c(cc1Cl)SC(N(N(C)C)S(=O)(=O)c1ccc(Cl)cc1)=NS2(=O)=O`, the GI50 was 12.5 µM and the TGI was above 100 µM.

For `Nc1ncnc2n[nH]c(Nc3ccc(F)cc3)c12`, the GI50 is 15.1 µM and the TGI was above 100 µM.

With `CCOC(=O)c1cc2nc3ccccc3c(=O)n2c2ccccc12`, the TGI is above 10 µM.

For `Cc1cc(I)cc(CN(C)CCCN2CCCCC2)c1O`, the GI50 is 11.8 µM and the TGI worked out at 29.9 µM.

Regarding `COc1cccc(-c2nc(-c3ccc(NC(=O)C(C)C)cc3)[nH]c2-c2ccnc(Br)c2)c1`, the GI50 is 0.511 µM and the TGI was found to be 2.85 µM.

The next assay relates to SF-268 CNS. Briefly: NCI-60 cell line screen, 48 h.
Turning to `OCC#Cc1ccccc1C#Cc1ccccc1`, the GI50 is 17.1 µM and the TGI is 35.3 µM.

In turn, `NS(=O)(=O)c1cc(Br)c(N=Nc2ccc(O)c3ncccc23)c(Br)c1` yielded a TGI above 100 µM.

As for `COc1ccc(-c2nnc(COc3ccc(C(=O)/C=C/c4ccco4)cc3)o2)cc1`, the GI50 is 2.76 µM and the TGI was found to be 8.25 µM.

Compound `OCc1ccc(-c2ccc(-c3ccc(CO)s3)o2)s1` returned a TGI above 97.1 µM.

For the compound `O=C(Nc1ccc(Cl)cc1)c1cccc(NC2=C(Cl)C(=O)N(Cc3ccccc3)C2=O)c1`, the GI50 was 11.6 µM and the TGI worked out at 30.1 µM.

Turning to `O=C(/C=C/c1ccncc1)c1cc(Cl)ccc1O`, the GI50 is 22.1 µM and the TGI was found to be 63.7 µM.

`Cc1cc(/C=C/c2ccc3cc(N(C)C)ccc3[n+]2C)c(C)n1-c1ccccc1`: the GI50 is 0.215 µM and the TGI worked out at 2.87 µM.

Regarding `CC[C@H](Nc1ncnc2nc[nH]c12)c1oc2ccccc2c(=O)c1-c1cccc(F)c1`, the GI50 was 22.6 µM and the TGI was above 100 µM.

In turn, `Cc1ccc(S(=O)(=O)Nc2ccccc2C(=O)c2ccc(C)c(C)c2)cc1` came in with a TGI above 100 µM.

The compound `COC1=CC(=O)C(C2CC(=O)c3c(O)cc(O)cc3O2)=CC1=O` (centres undefined) gave a TGI of 38.7 µM.

With `CC(C)C(C)/C=C\C(C)C1CCC2C3=CC=C4CC(O)CCC4(C)C3CCC21C` (centres undefined), the TGI is above 70.2 µM.

Turning to `Cc1cc2c(cc1Cl)SC(N(N(C)C)S(=O)(=O)c1ccc(Cl)cc1)=NS2(=O)=O`, the GI50 is 32.4 µM and the TGI is above 100 µM.

`Nc1ncnc2n[nH]c(Nc3ccc(F)cc3)c12`: the GI50 is 28.7 µM and the TGI is above 100 µM.

`CCOC(=O)c1cc2nc3ccccc3c(=O)n2c2ccccc12` yielded a TGI above 10 µM.

For the compound `Cc1cc(I)cc(CN(C)CCCN2CCCCC2)c1O`, the GI50 was 13.1 µM and the TGI worked out at 27.5 µM.

Regarding `COc1cccc(-c2nc(-c3ccc(NC(=O)C(C)C)cc3)[nH]c2-c2ccnc(Br)c2)c1`, the GI50 is 4.07 µM and the TGI was above 100 µM.

A further assay relates to SK-MEL-2 melanoma. Briefly: NCI-60 cell line screen, 48 h.
Take `OCC#Cc1ccccc1C#Cc1ccccc1`: the GI50 was 24.1 µM and the TGI is 51.3 µM.

On to `NS(=O)(=O)c1cc(Br)c(N=Nc2ccc(O)c3ncccc23)c(Br)c1`, for which the TGI was above 100 µM.

Consider `COc1ccc(-c2nnc(COc3ccc(C(=O)/C=C/c4ccco4)cc3)o2)cc1`, for which the GI50 is 13.9 µM and the TGI stood at 27.7 µM.

`OCc1ccc(-c2ccc(-c3ccc(CO)s3)o2)s1` showed a TGI of 89.2 µM.

Consider `O=C(Nc1ccc(Cl)cc1)c1cccc(NC2=C(Cl)C(=O)N(Cc3ccccc3)C2=O)c1`, for which the GI50 is 14.9 µM and the TGI came to 41.5 µM.

Take `O=C(/C=C/c1ccncc1)c1cc(Cl)ccc1O`: the GI50 was 19.7 µM and the TGI amounted to 37.8 µM.

On to `Cc1cc(/C=C/c2ccc3cc(N(C)C)ccc3[n+]2C)c(C)n1-c1ccccc1`, for which the GI50 is 0.27 µM and the TGI is 1.06 µM.

As to `CC[C@H](Nc1ncnc2nc[nH]c12)c1oc2ccccc2c(=O)c1-c1cccc(F)c1`, the GI50 is 18.4 µM and the TGI was determined as 46.7 µM.

In turn, `Cc1ccc(S(=O)(=O)Nc2ccccc2C(=O)c2ccc(C)c(C)c2)cc1` displayed a TGI above 100 µM.

`COC1=CC(=O)C(C2CC(=O)c3c(O)cc(O)cc3O2)=CC1=O` (centres undefined) had a TGI of 34.4 µM.

In the case of `CC(C)C(C)/C=C\C(C)C1CCC2C3=CC=C4CC(O)CCC4(C)C3CCC21C` (centres undefined), the TGI is above 100 µM.

For the compound `Cc1cc2c(cc1Cl)SC(N(N(C)C)S(=O)(=O)c1ccc(Cl)cc1)=NS2(=O)=O`, the GI50 was 20.1 µM and the TGI was found to be 66.6 µM.

As for `Nc1ncnc2n[nH]c(Nc3ccc(F)cc3)c12`, the GI50 is 14 µM and the TGI is above 100 µM.

As for `CCOC(=O)c1cc2nc3ccccc3c(=O)n2c2ccccc12`, the TGI was above 10 µM.

`Cc1cc(I)cc(CN(C)CCCN2CCCCC2)c1O`: the GI50 was 18.4 µM and the TGI turned out to be 37 µM.

`COc1cccc(-c2nc(-c3ccc(NC(=O)C(C)C)cc3)[nH]c2-c2ccnc(Br)c2)c1`: the GI50 is 2.3 µM and the TGI was 6.34 µM.
